Target: T1, CDK1/Cyclin B (Homo sapiens, UniProt P06493)
T1 construct: purchased Invitrogen PR4768C
Assay: Enzymatic assay for CDK1 (FRET based LANCE Ultra kinase assay)
Format: biochemical
Settings: read-out: CDK1 enzymatic activity (IC50 range)
Summary of the method: (§1)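 LANCE Ultra TR-FRET: ULight-MBP peptide (68 nM) with ATP at Km, […], 60 min at 23° C. EDTA plus Eu-anti-phospho-MBP added, another 60 min, then 665/615 nm emission read. Compounds tested as 8-dose 4-fold DMSO dilutions.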

T1 sequence (P06493 whole entry): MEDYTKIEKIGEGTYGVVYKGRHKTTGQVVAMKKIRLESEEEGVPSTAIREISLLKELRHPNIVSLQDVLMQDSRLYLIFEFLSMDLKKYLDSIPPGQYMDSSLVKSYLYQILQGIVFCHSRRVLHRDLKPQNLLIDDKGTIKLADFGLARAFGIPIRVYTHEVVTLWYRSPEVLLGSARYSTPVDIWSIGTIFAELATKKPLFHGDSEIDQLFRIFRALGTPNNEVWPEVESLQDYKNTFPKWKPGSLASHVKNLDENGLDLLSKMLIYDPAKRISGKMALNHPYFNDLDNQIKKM
T1 sequence (P14635 whole entry partner): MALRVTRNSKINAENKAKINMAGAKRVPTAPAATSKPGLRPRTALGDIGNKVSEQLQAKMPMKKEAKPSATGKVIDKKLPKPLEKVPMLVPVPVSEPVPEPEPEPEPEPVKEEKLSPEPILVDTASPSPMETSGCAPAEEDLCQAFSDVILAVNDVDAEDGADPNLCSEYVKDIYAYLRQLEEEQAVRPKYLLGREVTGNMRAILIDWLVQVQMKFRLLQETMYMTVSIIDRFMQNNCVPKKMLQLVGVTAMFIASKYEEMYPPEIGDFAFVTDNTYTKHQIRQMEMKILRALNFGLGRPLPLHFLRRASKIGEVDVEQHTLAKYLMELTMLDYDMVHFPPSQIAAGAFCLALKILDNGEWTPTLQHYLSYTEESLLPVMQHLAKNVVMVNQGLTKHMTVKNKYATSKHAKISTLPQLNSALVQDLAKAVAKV

IC50	SMILES
> 1000 nM	CCC(=O)N1CCc2nn(-c3cccc(Cl)c3CNc3cc(O[C@@H]4CCCNC4)nc4c(C(C)C)cnn34)cc2C1 [Compound 211]
> 1000 nM	CC(C)c1cnn2c(NCc3ccccc3-c3ccc4ccccc4n3)nc(NCC3(O)CCNCC3)nc12 [Compound 212]
> 1000 nM	CC(C)c1cnn2c(NCc3ccccc3-c3ccc4ccccc4n3)cc(OCC3CCNCC3)nc12 [Compound 213]
> 1000 nM	Cc1cccc(-c2cc(CO)nn2C)c1CNc1nc(N2CCC(N)CC2)nc2c(C(C)C)cnn12 [Compound 214]

Target: T2, CDK2/Cyclin A (Homo sapiens, UniProt P24941)
T2 construct: purchased Invitrogen PV6290
Assay: Enzymatic assay for CDK2 (FRET based LANCE Ultra kinase assay)
Format: biochemical
Settings: read-out: CDK2 enzymatic activity (IC50 range)
Summary of the method: as §1

IC50	SMILES
> 1000 nM	CCC(=O)N1CCc2nn(-c3cccc(Cl)c3CNc3cc(O[C@@H]4CCCNC4)nc4c(C(C)C)cnn34)cc2C1 [Compound 211]
> 1000 nM	CC(C)c1cnn2c(NCc3ccccc3-c3ccc4ccccc4n3)nc(NCC3(O)CCNCC3)nc12 [Compound 212]
> 1000 nM	CC(C)c1cnn2c(NCc3ccccc3-c3ccc4ccccc4n3)cc(OCC3CCNCC3)nc12 [Compound 213]
> 1000 nM	Cc1cccc(-c2cc(CO)nn2C)c1CNc1nc(N2CCC(N)CC2)nc2c(C(C)C)cnn12 [Compound 214]

Target: T3, CDK5/p25 (Homo sapiens, UniProt Q00535)
T3 construct: purchased Invitrogen PR8543B
T3 sequence (Q00535 whole entry): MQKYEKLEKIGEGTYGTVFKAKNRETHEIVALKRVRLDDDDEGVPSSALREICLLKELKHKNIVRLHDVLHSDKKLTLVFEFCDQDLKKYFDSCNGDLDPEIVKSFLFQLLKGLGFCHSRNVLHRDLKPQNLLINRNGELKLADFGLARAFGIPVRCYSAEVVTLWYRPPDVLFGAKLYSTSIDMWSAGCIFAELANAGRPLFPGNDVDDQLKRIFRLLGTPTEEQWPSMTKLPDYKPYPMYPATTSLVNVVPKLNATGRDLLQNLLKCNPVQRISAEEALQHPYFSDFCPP
T3 sequence (Q15078 99-307 partner limits assumed): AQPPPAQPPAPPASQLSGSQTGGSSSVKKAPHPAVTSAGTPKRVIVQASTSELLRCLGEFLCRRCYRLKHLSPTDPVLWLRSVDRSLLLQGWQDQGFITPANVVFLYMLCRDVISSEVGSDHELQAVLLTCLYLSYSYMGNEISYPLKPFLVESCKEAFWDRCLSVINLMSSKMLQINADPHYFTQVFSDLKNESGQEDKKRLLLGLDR
Assay: Enzymatic assay for CDK5 (FRET based LANCE Ultra kinase assay)
Format: biochemical
Settings: read-out: CDK5 enzymatic activity (IC50 range)
Summary of the method: as §1

IC50	SMILES
> 1000 nM	CCC(=O)N1CCc2nn(-c3cccc(Cl)c3CNc3cc(O[C@@H]4CCCNC4)nc4c(C(C)C)cnn34)cc2C1 [Compound 211]
> 1000 nM	CC(C)c1cnn2c(NCc3ccccc3-c3ccc4ccccc4n3)nc(NCC3(O)CCNCC3)nc12 [Compound 212]
> 1000 nM	CC(C)c1cnn2c(NCc3ccccc3-c3ccc4ccccc4n3)cc(OCC3CCNCC3)nc12 [Compound 213]
> 1000 nM	Cc1cccc(-c2cc(CO)nn2C)c1CNc1nc(N2CCC(N)CC2)nc2c(C(C)C)cnn12 [Compound 214]

Target: T4, CDK7/Cyclin H/MNAT1 (Homo sapiens, UniProt P50613)
T4 construct: purchased Invitrogen PR6749B
T4 sequence (P50613 whole entry): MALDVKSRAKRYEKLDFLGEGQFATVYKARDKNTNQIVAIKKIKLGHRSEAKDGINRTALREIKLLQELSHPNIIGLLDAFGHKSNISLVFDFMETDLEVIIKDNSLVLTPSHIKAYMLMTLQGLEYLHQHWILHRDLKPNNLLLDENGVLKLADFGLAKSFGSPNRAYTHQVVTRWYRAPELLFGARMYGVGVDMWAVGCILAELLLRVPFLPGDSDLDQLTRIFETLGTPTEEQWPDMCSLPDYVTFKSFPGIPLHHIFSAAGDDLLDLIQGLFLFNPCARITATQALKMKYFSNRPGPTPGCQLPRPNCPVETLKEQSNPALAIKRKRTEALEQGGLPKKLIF
T4 sequence (P51946 whole entry partner): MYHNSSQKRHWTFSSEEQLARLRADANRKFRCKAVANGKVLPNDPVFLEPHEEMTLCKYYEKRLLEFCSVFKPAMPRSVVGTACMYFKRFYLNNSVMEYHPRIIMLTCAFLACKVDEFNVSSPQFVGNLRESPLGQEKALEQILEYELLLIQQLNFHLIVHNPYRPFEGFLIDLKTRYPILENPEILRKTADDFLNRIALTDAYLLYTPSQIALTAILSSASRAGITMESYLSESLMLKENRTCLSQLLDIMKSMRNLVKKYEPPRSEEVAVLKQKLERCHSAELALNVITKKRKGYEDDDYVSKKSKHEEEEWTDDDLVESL
T4 sequence (P51948 whole entry partner): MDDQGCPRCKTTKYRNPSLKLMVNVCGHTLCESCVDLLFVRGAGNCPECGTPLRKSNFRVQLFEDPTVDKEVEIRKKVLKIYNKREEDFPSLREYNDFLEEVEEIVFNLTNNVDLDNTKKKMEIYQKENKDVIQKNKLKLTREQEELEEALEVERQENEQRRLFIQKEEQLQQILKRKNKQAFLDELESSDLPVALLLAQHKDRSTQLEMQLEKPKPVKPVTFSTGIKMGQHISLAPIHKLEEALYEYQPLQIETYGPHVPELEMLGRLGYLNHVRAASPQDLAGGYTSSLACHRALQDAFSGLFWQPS
Assay: Enzymatic assay for CDK7 (FRET based LANCE Ultra kinase assay)
Format: biochemical
Settings: CDK7 over CDK1
Summary of the method: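 LANCE Ultra TR-FRET kinase assay using a ULight-labeled peptide substrate and a Eu-labeled anti-phospho antibody, with ATP at its Km. Purified CDK/cyclin complex was added to compound after brief centrifugation.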

CDK1/CDK7: Selectivity of CDK7 inhibition over CDK1 inhibition	SMILES
A (A=greater than 200 fold)	CCC(=O)N1CCc2nn(-c3cccc(Cl)c3CNc3cc(O[C@@H]4CCCNC4)nc4c(C(C)C)cnn34)cc2C1 [Compound 211]
A (A=greater than 200 fold)	CC(C)c1cnn2c(NCc3ccccc3-c3ccc4ccccc4n3)nc(NCC3(O)CCNCC3)nc12 [Compound 212]
A (A=greater than 200 fold)	CC(C)c1cnn2c(NCc3ccccc3-c3ccc4ccccc4n3)cc(OCC3CCNCC3)nc12 [Compound 213]
A (A=greater than 200 fold)	Cc1cccc(-c2cc(CO)nn2C)c1CNc1nc(N2CCC(N)CC2)nc2c(C(C)C)cnn12 [Compound 214]

Same assay, conditions: CDK7 over CDK2

CDK2/CDK7: Selectivity of CDK7 inhibition over CDK2 inhibition	SMILES
A (A=greater than 200 fold)	CCC(=O)N1CCc2nn(-c3cccc(Cl)c3CNc3cc(O[C@@H]4CCCNC4)nc4c(C(C)C)cnn34)cc2C1 [Compound 211]
A (A=greater than 200 fold)	CC(C)c1cnn2c(NCc3ccccc3-c3ccc4ccccc4n3)cc(OCC3CCNCC3)nc12 [Compound 213]
A (A=greater than 200 fold)	Cc1cccc(-c2cc(CO)nn2C)c1CNc1nc(N2CCC(N)CC2)nc2c(C(C)C)cnn12 [Compound 214]

SMILES	CDK2/CDK7: Selectivity of CDK7 inhibition over CDK2 inhibition
CC(C)c1cnn2c(NCc3ccccc3-c3ccc4ccccc4n3)nc(NCC3(O)CCNCC3)nc12 [Compound 212]	B (B=less than 200 fold, but greater than 20 fold)

Same assay, conditions: CDK7 over CDK5

CDK5/CDK7: Selectivity of CDK7 inhibition over CDK5 inhibition	SMILES
A (A=greater than 200 fold)	CCC(=O)N1CCc2nn(-c3cccc(Cl)c3CNc3cc(O[C@@H]4CCCNC4)nc4c(C(C)C)cnn34)cc2C1 [Compound 211]
A (A=greater than 200 fold)	CC(C)c1cnn2c(NCc3ccccc3-c3ccc4ccccc4n3)cc(OCC3CCNCC3)nc12 [Compound 213]
A (A=greater than 200 fold)	Cc1cccc(-c2cc(CO)nn2C)c1CNc1nc(N2CCC(N)CC2)nc2c(C(C)C)cnn12 [Compound 214]

SMILES	CDK5/CDK7: Selectivity of CDK7 inhibition over CDK5 inhibition
CC(C)c1cnn2c(NCc3ccccc3-c3ccc4ccccc4n3)nc(NCC3(O)CCNCC3)nc12 [Compound 212]	B (B=less than 200 fold, but greater than 20 fold)

Same assay, conditions: read-out: CDK7 enzymatic activity (IC50 range)

IC50	SMILES
< 100 nM	CCC(=O)N1CCc2nn(-c3cccc(Cl)c3CNc3cc(O[C@@H]4CCCNC4)nc4c(C(C)C)cnn34)cc2C1 [Compound 211]
< 100 nM	CC(C)c1cnn2c(NCc3ccccc3-c3ccc4ccccc4n3)nc(NCC3(O)CCNCC3)nc12 [Compound 212]
< 100 nM	CC(C)c1cnn2c(NCc3ccccc3-c3ccc4ccccc4n3)cc(OCC3CCNCC3)nc12 [Compound 213]
< 100 nM	Cc1cccc(-c2cc(CO)nn2C)c1CNc1nc(N2CCC(N)CC2)nc2c(C(C)C)cnn12 [Compound 214]

Tested on: HCT116
Assay: Cellular HCT116 viability assay (CellTiter-Glo, 72 hours)
Format: cell-based
Settings: Homo sapiens, HCT-116
Summary of the method: (§2)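 Cells were plated at line-specific densities and exposed to compound for 72 hours at 37 °C, 5% CO2, with DMSO-only wells as control (final DMSO below 0.1%). Viability was measured by CellTiter-Glo luminescence in duplicate.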

IC50	SMILES
1000 to 10000 nM	CCC(=O)N1CCc2nn(-c3cccc(Cl)c3CNc3cc(O[C@@H]4CCCNC4)nc4c(C(C)C)cnn34)cc2C1 [Compound 211]
1000 to 10000 nM	CC(C)c1cnn2c(NCc3ccccc3-c3ccc4ccccc4n3)nc(NCC3(O)CCNCC3)nc12 [Compound 212]
1000 to 10000 nM	CC(C)c1cnn2c(NCc3ccccc3-c3ccc4ccccc4n3)cc(OCC3CCNCC3)nc12 [Compound 213]
< 1000 nM	Cc1cccc(-c2cc(CO)nn2C)c1CNc1nc(N2CCC(N)CC2)nc2c(C(C)C)cnn12 [Compound 214]

Tested on: H460
Assay: Cellular H460 viability assay (CellTiter-Glo, 72 hours)
Format: cell-based
Settings: Homo sapiens, NCI-H460
Summary of the method: as §2

IC50	SMILES
1000 to 10000 nM	CCC(=O)N1CCc2nn(-c3cccc(Cl)c3CNc3cc(O[C@@H]4CCCNC4)nc4c(C(C)C)cnn34)cc2C1 [Compound 211]
1000 to 10000 nM	CC(C)c1cnn2c(NCc3ccccc3-c3ccc4ccccc4n3)nc(NCC3(O)CCNCC3)nc12 [Compound 212]
1000 to 10000 nM	CC(C)c1cnn2c(NCc3ccccc3-c3ccc4ccccc4n3)cc(OCC3CCNCC3)nc12 [Compound 213]
< 1000 nM	Cc1cccc(-c2cc(CO)nn2C)c1CNc1nc(N2CCC(N)CC2)nc2c(C(C)C)cnn12 [Compound 214]

Tested on: MV4-11
Assay: Cellular MV4-11 viability assay (CellTiter-Glo, 72 hours)
Format: cell-based
Settings: Homo sapiens
Summary of the method: as §2

IC50	SMILES
1000 to 10000 nM	CCC(=O)N1CCc2nn(-c3cccc(Cl)c3CNc3cc(O[C@@H]4CCCNC4)nc4c(C(C)C)cnn34)cc2C1 [Compound 211]
1000 to 10000 nM	CC(C)c1cnn2c(NCc3ccccc3-c3ccc4ccccc4n3)nc(NCC3(O)CCNCC3)nc12 [Compound 212]
1000 to 10000 nM	CC(C)c1cnn2c(NCc3ccccc3-c3ccc4ccccc4n3)cc(OCC3CCNCC3)nc12 [Compound 213]
< 1000 nM	Cc1cccc(-c2cc(CO)nn2C)c1CNc1nc(N2CCC(N)CC2)nc2c(C(C)C)cnn12 [Compound 214]

Reference: US11945822B2, “Pyrazolo-triazine and/or pyrazolo-pxrimidine derivatives as selective inhibitor of cyclin dependent kinase” (QURIENT CO., LTD., priority 2018, dated 2024)
